In patent publication US11814364B2, “Pyridine N-oxide derivatives useful as factor XIa inhibitors” (Janssen Pharmaceutica NV, priority 2021, dated 2023):

target: human plasma kallikrein (Homo sapiens, UniProt P03952); test: Kallikrein inhibition FLINT assay with quenched AMC peptide substrate Z-Gly-Pro-Arg-AMC (end point EP or kinetic KIN reads); type: biochemical; conditions: kinetic reads at 5 min intervals over 30 min; read-out: Kallikrein (KIN) IC50
Method in brief: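 Enzyme and compound were preincubated 30 min before adding 50 μM AMC substrate in pH 7.5 Tris/NaCl/CaCl2/BSA/CHAPS buffer. AMC release was read at 30 min endpoint or every 5 min.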

human plasma kallikrein, sequence (P03952 391-638 limits assumed): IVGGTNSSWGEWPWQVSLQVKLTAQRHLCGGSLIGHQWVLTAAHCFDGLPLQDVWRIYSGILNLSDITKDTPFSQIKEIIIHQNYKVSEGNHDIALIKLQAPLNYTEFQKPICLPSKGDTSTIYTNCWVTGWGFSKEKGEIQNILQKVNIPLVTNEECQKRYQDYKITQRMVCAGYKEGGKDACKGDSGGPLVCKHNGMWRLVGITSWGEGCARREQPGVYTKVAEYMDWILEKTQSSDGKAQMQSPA
human plasma kallikrein, sequence (P03952 20-390 partner limits assumed): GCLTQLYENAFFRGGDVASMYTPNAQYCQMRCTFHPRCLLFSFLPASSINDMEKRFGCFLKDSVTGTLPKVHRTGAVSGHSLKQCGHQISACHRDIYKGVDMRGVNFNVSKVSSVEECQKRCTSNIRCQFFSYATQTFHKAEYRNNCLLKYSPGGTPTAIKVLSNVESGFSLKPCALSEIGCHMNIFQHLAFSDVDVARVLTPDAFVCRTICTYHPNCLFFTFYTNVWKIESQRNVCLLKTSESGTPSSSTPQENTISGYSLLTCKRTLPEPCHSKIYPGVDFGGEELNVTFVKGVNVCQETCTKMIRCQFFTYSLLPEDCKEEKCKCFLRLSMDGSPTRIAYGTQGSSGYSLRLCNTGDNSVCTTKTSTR

| IC50 [nM] | SMILES |
| --- | --- |
| 397 | [O-][n+]1cc(-c2c(-n3cnnn3)ccc(Cl)c2F)ccc1C(CC1CC1)n1cc(-c2ccnnc2)cn1 (stereo not shown) [Example P397] |
| 72.8 | COCCOC(=O)Nc1ccc(-c2cnn(C(CC3CC3)c3ccc(-c4c(-n5cnnn5)ccc(Cl)c4F)c[n+]3[O-])c2)cc1 (stereo not shown) [Example P141] |
| 126 | [O-][n+]1cc(-c2cc(Cl)ccc2-n2cnnn2)ccc1C(Cn1cc2c(n1)COCC2)n1cc(-c2ccnc(C(F)(F)F)c2)cn1 (stereo not shown) [Example P388] |
| 23.8 | Cn1nnc(F)c1-c1cnn(C(Cc2ccn(C(F)F)n2)c2ccc(-c3c(-n4cc(Cl)nn4)ccc(Cl)c3F)c[n+]2[O-])c1 (stereo not shown) [Example P797] |
| 3.7 | [O-][n+]1cc(-c2c(-n3cnnn3)ccc(Cl)c2F)ccc1C(Cn1cc(F)cn1)n1cc(-c2ccnc(C3CC3)c2)cn1 (stereo not shown) [Example P500] |
| 79.8 | O=C(NC1CC1)c1ccc(-c2cnn(C(Cc3ccc(-c4ccccc4)cc3)c3ccc(-c4cc(Cl)ccc4-n4cnnn4)c[n+]3[O-])c2)cc1 (stereo not shown) [Example P87] |
| 85.6 | Cc1nc(C(F)(F)F)sc1-c1cnn(C(CC2CC2)c2ccc(-c3c(-n4cnnn4)ccc(Cl)c3F)c[n+]2[O-])c1 (single isomer, unassigned) [Example P961] |
| 830 | Cn1ncc(C[C@@H](c2ccc(-c3c(-n4cc(Cl)nn4)ccc(Cl)c3F)c[n+]2[O-])n2cc(-c3ccnc(C(F)(F)F)c3)cn2)n1 [Example P715] |
| > 100 | CC1CC1CC(c1ccc(-c2c(-n3cnnn3)ccc(Cl)c2F)c[n+]1[O-])n1cc(-c2ncnn2C(F)F)cn1 (stereo not shown) [Example P767] |
| 625 | O=C(O)c1ccc(-c2cnn(C(CC3CC3C(=O)N3CCC(c4ccccc4)C3)c3ccc(-c4cc(Cl)ccc4-n4cnnn4)c[n+]3[O-])c2)cc1 (single isomer, unassigned) [Example P101] |
| 6.4 | [O-][n+]1cc(-c2c(-n3cnnn3)ccc(Cl)c2F)ccc1[C@@H](Cc1ccn(C(F)F)n1)n1cc(-c2ccnn2C(F)F)cn1 [Example P734] |
| 3.8 | O=C(O)c1ccc(-c2cnn(C(Cc3ccc(Cl)cc3)c3ccc(-c4cc(Cl)ccc4-n4cnnn4)c[n+]3[O-])c2)cc1 (stereo not shown) [Example P57] |
| 4.9 | O=C(O)c1ccc(-c2cnn(C(Cc3ccn(C(F)F)n3)c3ccc(-c4c(C(F)F)ccc(Cl)c4F)c[n+]3[O-])c2)cc1 (single isomer, unassigned) [Example Q71] |
| 8.1 | [O-][n+]1cc(-c2c(-n3cnnn3)ccc(Cl)c2F)ccc1C(Cn1cc(F)cn1)n1cc(-c2ccncc2)cn1 (stereo not shown) [Example P276] |
| 57.6 | Cn1ccc(C[C@H](c2ccc(-c3cc(Cl)ccc3C#N)c[n+]2[O-])n2cc(-c3ccc(C(=O)O)cc3)cn2)n1 [Example Q47] |
| 58.9 | COc1cc(C(CC2CC2)n2cc(-c3ncnn3C(F)F)cn2)[n+]([O-])cc1-c1c(C#N)ccc(Cl)c1F (stereo not shown) [Example Q56] |
| 77.8 | NC(=O)c1ccc(-c2cnn(C(CC3CC3)c3ccc(-c4c(-n5cc(C(F)(F)F)nn5)ccc(Cl)c4F)c[n+]3[O-])c2)cc1F (single isomer, unassigned) [Example P889] |
| 140 | Cn1ccc(CC(c2ccc(-c3c(-n4cnnn4)ccc(Cl)c3F)c[n+]2[O-])n2cc(-c3ccnc(C(F)(F)F)c3)cn2)n1 (single isomer, unassigned) [Example P378] |
| 7.2 | [2H]C([2H])([2H])OC([2H])([2H])CC(c1ccc(-c2c(-n3cc(C(F)(F)F)nn3)ccc(Cl)c2F)c[n+]1[O-])n1cc(-c2ccc(C(N)=O)c(F)c2)cn1 (single isomer, unassigned) [Example P913] |
| 11.6 | O=C(O)c1ccc(-c2cnn([C@H](CCOC(F)F)c3ccc(-c4c(-n5cc(C(F)(F)F)nn5)ccc(Cl)c4F)c[n+]3[O-])c2)cc1 [Example P858] |
| 99.1 | NC(=O)c1ccc(-c2cnn(C(CC3CC3C(=O)N3CCCCC3)c3ccc(-c4c(C(F)F)ccc(Cl)c4F)c[n+]3[O-])c2)cc1 (stereo not shown) [Example Q37] |

Continued, compound first:

| SMILES | IC50 [nM] |
| --- | --- |
| Cn1cc2cc(-c3cnn(C(CC4CC4)c4ccc(-c5c(-n6cnnn6)ccc(Cl)c5F)c[n+]4[O-])c3)ccc2n1 (stereo not shown) [Example P326] | 47.9 |
| O=c1[nH]c(-c2ccc(-c3cnn(C(CCOC(F)F)c4ccc(-c5c(-n6cc(C(F)(F)F)nn6)ccc(Cl)c5F)c[n+]4[O-])c3)cc2)no1 (stereo not shown) [Example P903] | 11.5 |
| COC(=O)Nc1ccc(-c2cnn(C(CC3CC(C)(C)C3)c3ccc(-c4c(-n5cnnn5)ccc(Cl)c4F)c[n+]3[O-])c2)cc1 (stereo not shown) [Example P126] | 248 |
| [O-][n+]1cc(-c2c(-n3cnnn3)ccc(Cl)c2F)ccc1[C@@H](CCOC(F)F)n1cc(-c2cnn(C(F)F)n2)cn1 [Example P674] | 54.9 |
| [O-][n+]1cc(-c2c(-n3cc(Cl)nn3)ccc(Cl)c2F)ccc1[C@@H](Cn1cccn1)n1cc(-c2cnnn2C(F)F)cn1 [Example P685] | 151 |
| NC(=O)c1ccc(-c2cnn(C(Cc3ccn(C(F)F)n3)c3ccc(-c4c(-n5cc(Cl)nn5)ccc(Cl)c4F)c[n+]3[O-])c2)cc1 (single isomer, unassigned) [Example P910] | 30.7 |
| COC(=O)Nc1ccc(-c2cnn(C(Cc3ccccc3)c3ccc(-c4c(-n5cnnn5)ccc(Cl)c4F)c[n+]3[O-])c2)cc1 (stereo not shown) [Example P71] | 7.5 |
| [O-][n+]1cc(-c2c(-n3cc(Cl)nn3)ccc(Cl)c2F)ccc1C(Cn1cc(F)cn1)n1cc(-c2ccnc(C(F)(F)F)c2)cn1 (single isomer, unassigned) [Example P480] | 31.2 |
| N#Cc1cc(-c2cnn(C(CC3CC3)c3ccc(-c4c(-n5cnnn5)ccc(Cl)c4F)c[n+]3[O-])c2)ccn1 (stereo not shown) [Example P294] | 212 |
| COc1cc([C@@H](CC2CC2)n2cc(-c3ccc(C(=O)O)cc3)cn2)[n+]([O-])cc1-c1cc(Cl)ccc1C#N [Example Q51] | 14.5 |
| COC(=O)Nc1ccc(-c2cnn(C(CC3CC3)c3cc(OC)c(-c4c(-n5cnnn5)ccc(Cl)c4F)c[n+]3[O-])c2)cc1 (stereo not shown) [Example P93] | 4.5 |
| COC(=O)Nc1ccc(-c2cnn(C(Cn3cccn3)c3ccc(-c4c(-n5cnnn5)ccc(Cl)c4F)c[n+]3[O-])c2)cc1 (single isomer, unassigned) [Example P273] | 10.9 |
| COC(=O)N(C)CC(c1ccc(-c2c(-n3cnnn3)ccc(Cl)c2F)c[n+]1[O-])n1cc(-c2ccc(N)nc2F)cn1 (stereo not shown) [Example P482] | 22.9 |
| O=C(O)c1ccc(-c2cnn(C(Cc3ccn(C(F)F)n3)c3ccc(-c4c(-n5cc(C(F)(F)F)nn5)ccc(Cl)c4F)c[n+]3[O-])c2)cc1 (single isomer, unassigned) [Example P900] | 2.2 |
| NC(=O)c1cnn(CC(c2ccc(-c3c(-n4cnnn4)ccc(Cl)c3F)c[n+]2[O-])n2cc(-c3ccnc(C(F)(F)F)c3)cn2)c1 (stereo not shown) [Example P483] | 9.1 |
| CC(C)(C)c1cnn(CC(c2ccc(-c3c(-n4cc(C(F)(F)F)nn4)ccc(Cl)c3F)c[n+]2[O-])n2cc(-c3ccc(C(N)=O)c(F)c3)cn2)c1 (stereo not shown) [Example P951] | 316 |
| [O-][n+]1cc(-c2c(-n3cnnn3)ccc(Cl)c2F)ccc1[C@@H](CC1CC1)n1cc(-c2cn(C(F)F)nn2)cn1 [Example P594] | 247 |

| SMILES | IC50 [nM] |
| --- | --- |
| [O-][n+]1ccc(-c2cnn(C(CC3CC3)c3ccc(-c4c(-n5cnnn5)ccc(Cl)c4F)c[n+]3[O-])c2)cc1 (single isomer, unassigned) [Example P280] | 84 |
| NC(=O)c1ccc(-c2cnn(C(CCOC(F)F)c3ccc(-c4c(-n5cc(Cl)nn5)ccc(Cl)c4F)c[n+]3[O-])c2)cc1 (single isomer, unassigned) [Example P896] | 0.2 |
| COC(=O)Nc1ccc(-c2cnn(C(CC3CCC3)c3ccc(-c4c(-n5cnnn5)ccc(Cl)c4F)c[n+]3[O-])c2)cc1 (stereo not shown) [Example P109] | 45.7 |
| O=C1CCCN1CC(c1ccc(-c2c(-n3cnnn3)ccc(Cl)c2F)c[n+]1[O-])n1cc(-c2ccncc2)cn1 (stereo not shown) [Example P242] | 3.9 |
| Nc1ccc(-c2cnn(C(Cn3cccn3)c3ccc(-c4c(-n5cnnn5)ccc(Cl)c4F)c[n+]3[O-])c2)c(F)n1 (single isomer, unassigned) [Example P315] | 51 |
| Cn1cncc1-c1cnn(C(CC2CC2)c2ccc(-c3c(-n4cnnn4)ccc(Cl)c3F)c[n+]2[O-])c1 (stereo not shown) [Example P457] | 554 |
| N#Cc1cnn(CC(c2ccc(-c3c(-n4cc(C(F)(F)F)nn4)ccc(Cl)c3F)c[n+]2[O-])n2cc(-c3ccc(C(N)=O)c(F)c3)cn2)c1 (stereo not shown) [Example P955] | 613 |
| Cn1nncc1-c1cnn([C@H](CCOC(F)F)c2ccc(-c3c(-n4cc(C(F)(F)F)nn4)ccc(Cl)c3F)c[n+]2[O-])c1 [Example P761] | 41.6 |
| Nc1ccc(-c2cnn(C(Cn3cccn3)c3ccc(-c4c(-n5cnnn5)ccc(Cl)c4F)c[n+]3[O-])c2)c(F)n1 (stereo not shown) [Example P256] | 3 |
| [O-][n+]1cc(-c2c(-n3cc(C4CC4)nn3)ccc(Cl)c2F)ccc1C(Cn1cc(F)cn1)n1cc(-c2ccnc(C(F)(F)F)c2)cn1 (stereo not shown) [Example P485] | 670 |
| O=C(O)c1ccc(-c2cnn(C(CC(=O)N3CCCC3)c3ccc(-c4c(-n5cc(C(F)(F)F)nn5)ccc(Cl)c4F)c[n+]3[O-])c2)cc1F (stereo not shown) [Example P901] | 287 |
| Cc1nc(N)ccc1-c1cnn(C(CCOC(F)F)c2ccc(-c3c(-n4cnnn4)ccc(Cl)c3F)c[n+]2[O-])c1 (stereo not shown) [Example P342] | 4.3 |
| COC(=O)Nc1ccc(-c2cnn(C(Cc3ccccc3OC)c3ccc(-c4c(-n5cnnn5)ccc(Cl)c4F)c[n+]3[O-])c2)cc1 (stereo not shown) [Example P164] | 28.5 |
| [O-][n+]1cc(-c2c(-n3cc(Cl)nn3)ccc(Cl)c2F)ccc1C(Cn1cc(F)cn1)n1cc(-c2ccnc(C(F)(F)F)c2)cn1 (stereo not shown) [Example P479] | 185 |
| [O-][n+]1cc(-c2c(-n3cnnn3)ccc(Cl)c2F)ccc1C(Cc1ccc(F)cc1)n1cc(-c2c(Cl)nnn2C(F)F)cn1 (stereo not shown) [Example P605] | 10.7 |
| COc1ccc(CC(c2ccc(-c3cc(Cl)ccc3-n3cnnn3)c[n+]2[O-])n2cc(-c3ccc(C(=O)NC4CC4)cc3)cn2)cc1 (stereo not shown) [Example P86] | 23 |
| [O-][n+]1cc(-c2c(-n3cnnn3)ccc(Cl)c2F)ccc1C(CC1CC1)n1cc(-c2ccn[nH]2)cn1 (stereo not shown) [Example P467] | 780 |
